Data published in ChEMBL document CHEMBL4725309, “Potent, non-covalent reversible BTK inhibitors with 8-amino-imidazo[1,5-a]pyrazine core featuring 3-position bicyclic ring substitutes” (Bioorg Med Chem Lett, 2020).

Legend:
Homo sapiens [1] = organism: Homo sapiens; assay: Selectivity index, ratio of IC50 for LCK (unknown origin) to IC50 for recombinant full length BTK (unknown origin) expressed in baculovirus infected Sf9 cells
[2] = molecular target: T1, Cytoplasmic tyrosine-protein kinase BMX (Homo sapiens, UniProt P51813); assay: Inhibition of BMX (unknown origin)
T1 sequence (P51813 whole entry): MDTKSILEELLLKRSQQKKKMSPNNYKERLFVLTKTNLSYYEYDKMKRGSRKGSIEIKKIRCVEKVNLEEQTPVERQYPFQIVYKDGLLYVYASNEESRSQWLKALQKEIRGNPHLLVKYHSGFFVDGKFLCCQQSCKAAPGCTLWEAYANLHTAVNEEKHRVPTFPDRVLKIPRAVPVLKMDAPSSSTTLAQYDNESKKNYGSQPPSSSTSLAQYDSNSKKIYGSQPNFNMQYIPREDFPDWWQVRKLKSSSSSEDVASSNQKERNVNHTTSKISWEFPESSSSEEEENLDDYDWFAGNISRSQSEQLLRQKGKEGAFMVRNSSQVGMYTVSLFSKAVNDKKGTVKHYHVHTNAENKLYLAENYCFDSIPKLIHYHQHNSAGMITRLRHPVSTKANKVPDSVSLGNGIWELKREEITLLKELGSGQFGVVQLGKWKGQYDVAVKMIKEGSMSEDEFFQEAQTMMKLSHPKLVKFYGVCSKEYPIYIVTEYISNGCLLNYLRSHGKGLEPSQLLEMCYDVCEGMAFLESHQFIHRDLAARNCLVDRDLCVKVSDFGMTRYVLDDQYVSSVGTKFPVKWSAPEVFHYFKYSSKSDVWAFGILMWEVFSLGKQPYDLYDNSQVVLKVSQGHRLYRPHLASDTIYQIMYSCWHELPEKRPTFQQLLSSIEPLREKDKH

[3] = Tmax in Wistar Han rat at 5 mg/kg, po; type: ADME, organism-based; conditions: in vivo
[4] = molecular target: T2, Tyrosine-protein kinase BTK (Homo sapiens, UniProt Q06187); assay: Inhibition of BTK in human PBMC assessed as reduction in cell surface CD69 expression preincubated for 1 hr followed by stimulation with goat anti-human IgM F(ab')2 for 18 hrs by immunostaining analysis; type: tissue-based
T2 sequence (Q06187 whole entry): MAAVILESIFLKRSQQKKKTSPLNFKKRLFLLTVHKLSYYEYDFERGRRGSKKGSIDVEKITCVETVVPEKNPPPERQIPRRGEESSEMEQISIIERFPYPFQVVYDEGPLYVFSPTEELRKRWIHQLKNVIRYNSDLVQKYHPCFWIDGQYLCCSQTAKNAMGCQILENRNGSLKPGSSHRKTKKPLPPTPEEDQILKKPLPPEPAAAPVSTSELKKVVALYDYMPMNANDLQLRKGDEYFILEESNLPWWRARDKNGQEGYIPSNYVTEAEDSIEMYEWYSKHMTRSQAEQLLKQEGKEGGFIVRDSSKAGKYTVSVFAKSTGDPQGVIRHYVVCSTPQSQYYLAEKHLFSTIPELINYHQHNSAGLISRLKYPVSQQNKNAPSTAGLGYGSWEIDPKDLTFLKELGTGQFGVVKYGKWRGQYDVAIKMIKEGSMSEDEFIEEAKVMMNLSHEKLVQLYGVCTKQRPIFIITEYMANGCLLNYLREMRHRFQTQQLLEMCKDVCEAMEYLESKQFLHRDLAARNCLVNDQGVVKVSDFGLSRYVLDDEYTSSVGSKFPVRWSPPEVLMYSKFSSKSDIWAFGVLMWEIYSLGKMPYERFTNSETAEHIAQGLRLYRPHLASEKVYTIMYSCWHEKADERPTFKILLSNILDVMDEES

[5] = Volume of distribution at steady state in Wistar Han rat at 2 mg/kg, iv; type: ADME, organism-based; conditions: in vivo, read-out: Vdss
Homo sapiens [6] = organism: Homo sapiens; assay: Selectivity index, ratio of IC50 for YES1 (unknown origin) to IC50 for recombinant full length BTK (unknown origin) expressed in baculovirus infected Sf9 cells
Homo sapiens [7] = organism: Homo sapiens; assay: Selectivity index, ratio of IC50 for FYN (unknown origin) to IC50 for recombinant full length BTK (unknown origin) expressed in baculovirus infected Sf9 cells
[8] = AUC in Wistar Han rat at 2 mg/kg, iv; type: ADME, organism-based; design: dose 2 mg/kg; conditions: in vivo
[9] = molecular target: Receptor tyrosine-protein kinase erbB-4 (Homo sapiens, UniProt Q15303); assay: Inhibition of ERBB4 (unknown origin)
Sequence of Receptor tyrosine-protein kinase erbB-4 (Q15303 whole entry): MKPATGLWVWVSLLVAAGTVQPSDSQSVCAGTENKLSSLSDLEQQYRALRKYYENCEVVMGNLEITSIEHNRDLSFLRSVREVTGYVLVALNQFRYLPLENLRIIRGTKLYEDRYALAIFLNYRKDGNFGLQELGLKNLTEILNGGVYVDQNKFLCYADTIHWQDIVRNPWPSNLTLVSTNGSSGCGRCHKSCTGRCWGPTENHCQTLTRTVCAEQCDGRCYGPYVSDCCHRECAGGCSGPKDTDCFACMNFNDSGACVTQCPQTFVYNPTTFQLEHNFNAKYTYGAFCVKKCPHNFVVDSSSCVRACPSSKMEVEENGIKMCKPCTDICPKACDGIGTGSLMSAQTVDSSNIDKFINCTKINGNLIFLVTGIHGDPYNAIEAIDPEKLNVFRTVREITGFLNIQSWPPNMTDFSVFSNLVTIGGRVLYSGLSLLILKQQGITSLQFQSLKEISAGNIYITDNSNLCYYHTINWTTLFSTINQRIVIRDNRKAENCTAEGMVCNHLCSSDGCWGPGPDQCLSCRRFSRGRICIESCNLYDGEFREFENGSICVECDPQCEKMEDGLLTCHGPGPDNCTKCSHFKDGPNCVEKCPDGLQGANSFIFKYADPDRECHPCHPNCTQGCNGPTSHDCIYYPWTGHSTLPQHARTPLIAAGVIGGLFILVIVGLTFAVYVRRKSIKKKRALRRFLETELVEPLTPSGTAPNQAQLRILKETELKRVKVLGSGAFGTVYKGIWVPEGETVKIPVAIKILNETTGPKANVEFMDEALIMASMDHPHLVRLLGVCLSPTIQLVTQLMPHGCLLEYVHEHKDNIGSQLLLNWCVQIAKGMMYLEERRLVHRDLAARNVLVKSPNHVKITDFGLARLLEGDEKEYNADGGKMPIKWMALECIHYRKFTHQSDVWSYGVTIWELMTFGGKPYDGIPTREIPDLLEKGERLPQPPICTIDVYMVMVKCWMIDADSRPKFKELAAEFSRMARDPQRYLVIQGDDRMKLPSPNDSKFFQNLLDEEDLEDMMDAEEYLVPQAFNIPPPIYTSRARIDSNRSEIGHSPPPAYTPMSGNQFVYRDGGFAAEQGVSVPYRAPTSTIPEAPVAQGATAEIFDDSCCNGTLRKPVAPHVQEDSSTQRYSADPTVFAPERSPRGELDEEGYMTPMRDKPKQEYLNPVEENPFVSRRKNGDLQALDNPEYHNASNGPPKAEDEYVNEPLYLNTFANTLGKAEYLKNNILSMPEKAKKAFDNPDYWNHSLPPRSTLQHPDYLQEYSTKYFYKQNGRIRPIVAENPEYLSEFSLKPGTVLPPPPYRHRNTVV

Homo sapiens [10] = organism: Homo sapiens; assay: Selectivity index, ratio of IC50 for SRMS (unknown origin) to IC50 for recombinant full length BTK (unknown origin) expressed in baculovirus infected Sf9 cells
[11] = molecular target: Proto-oncogene tyrosine-protein kinase Src (Homo sapiens, UniProt P12931); assay: Inhibition of SRC (unknown origin)
Sequence of Proto-oncogene tyrosine-protein kinase Src (P12931 2-536 limits assumed): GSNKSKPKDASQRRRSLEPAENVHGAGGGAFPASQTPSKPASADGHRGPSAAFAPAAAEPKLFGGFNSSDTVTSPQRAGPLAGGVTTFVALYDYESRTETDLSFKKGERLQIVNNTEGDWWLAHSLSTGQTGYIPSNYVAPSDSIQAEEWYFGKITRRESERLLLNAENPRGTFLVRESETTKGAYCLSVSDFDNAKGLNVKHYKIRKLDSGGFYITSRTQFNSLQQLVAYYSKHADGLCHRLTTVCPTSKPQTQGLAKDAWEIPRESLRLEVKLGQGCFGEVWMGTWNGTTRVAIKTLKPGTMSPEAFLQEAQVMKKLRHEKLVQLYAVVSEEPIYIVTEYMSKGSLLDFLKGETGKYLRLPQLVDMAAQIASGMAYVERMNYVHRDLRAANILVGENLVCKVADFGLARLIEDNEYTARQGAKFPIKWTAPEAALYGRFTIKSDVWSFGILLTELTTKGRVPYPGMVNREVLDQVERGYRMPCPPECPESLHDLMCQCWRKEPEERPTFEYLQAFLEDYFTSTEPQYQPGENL

Homo sapiens [12] = organism: Homo sapiens; assay: Selectivity index, ratio of IC50 for CSK (unknown origin) to IC50 for recombinant full length BTK (unknown origin) expressed in baculovirus infected Sf9 cells
[13] = molecular target: T3, Tyrosine-protein kinase Tec (Homo sapiens, UniProt P42680); assay: Inhibition of TEC (unknown origin)
T3 sequence (P42680 whole entry): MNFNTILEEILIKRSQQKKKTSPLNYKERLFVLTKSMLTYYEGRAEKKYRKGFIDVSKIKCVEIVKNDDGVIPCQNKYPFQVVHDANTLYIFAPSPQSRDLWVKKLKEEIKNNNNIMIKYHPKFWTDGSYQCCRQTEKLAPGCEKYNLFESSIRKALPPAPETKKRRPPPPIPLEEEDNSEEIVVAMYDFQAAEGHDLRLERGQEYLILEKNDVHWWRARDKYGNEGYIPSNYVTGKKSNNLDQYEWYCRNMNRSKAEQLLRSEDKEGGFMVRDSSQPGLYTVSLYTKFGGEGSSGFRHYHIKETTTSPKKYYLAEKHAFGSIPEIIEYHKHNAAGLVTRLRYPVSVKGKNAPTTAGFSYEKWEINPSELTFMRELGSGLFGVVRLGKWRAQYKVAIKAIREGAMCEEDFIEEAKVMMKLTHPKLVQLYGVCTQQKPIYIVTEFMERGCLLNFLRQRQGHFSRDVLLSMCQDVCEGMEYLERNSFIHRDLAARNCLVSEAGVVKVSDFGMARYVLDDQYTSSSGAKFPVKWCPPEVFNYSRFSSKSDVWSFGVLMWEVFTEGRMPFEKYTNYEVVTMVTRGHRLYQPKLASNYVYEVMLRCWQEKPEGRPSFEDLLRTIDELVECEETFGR

[14] = molecular target: Protein-tyrosine kinase 6 (Homo sapiens, UniProt Q13882); assay: Inhibition of PTK6 (unknown origin)
Sequence of Protein-tyrosine kinase 6 (Q13882 whole entry): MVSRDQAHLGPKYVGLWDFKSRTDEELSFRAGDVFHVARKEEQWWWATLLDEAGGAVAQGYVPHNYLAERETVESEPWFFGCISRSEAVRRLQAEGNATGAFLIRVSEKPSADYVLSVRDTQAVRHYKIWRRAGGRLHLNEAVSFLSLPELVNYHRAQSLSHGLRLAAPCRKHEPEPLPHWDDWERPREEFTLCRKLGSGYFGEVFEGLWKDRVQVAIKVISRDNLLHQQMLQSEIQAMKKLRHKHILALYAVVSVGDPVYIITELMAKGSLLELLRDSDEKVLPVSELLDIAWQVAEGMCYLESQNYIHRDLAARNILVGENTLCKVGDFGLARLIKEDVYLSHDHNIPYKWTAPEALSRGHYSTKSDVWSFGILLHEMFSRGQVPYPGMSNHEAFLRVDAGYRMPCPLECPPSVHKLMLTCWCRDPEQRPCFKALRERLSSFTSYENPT

[15] = molecular target: Tyrosine-protein kinase Fyn (Homo sapiens, UniProt P06241); assay: Inhibition of FYN (unknown origin)
Sequence of Tyrosine-protein kinase Fyn (P06241 whole entry): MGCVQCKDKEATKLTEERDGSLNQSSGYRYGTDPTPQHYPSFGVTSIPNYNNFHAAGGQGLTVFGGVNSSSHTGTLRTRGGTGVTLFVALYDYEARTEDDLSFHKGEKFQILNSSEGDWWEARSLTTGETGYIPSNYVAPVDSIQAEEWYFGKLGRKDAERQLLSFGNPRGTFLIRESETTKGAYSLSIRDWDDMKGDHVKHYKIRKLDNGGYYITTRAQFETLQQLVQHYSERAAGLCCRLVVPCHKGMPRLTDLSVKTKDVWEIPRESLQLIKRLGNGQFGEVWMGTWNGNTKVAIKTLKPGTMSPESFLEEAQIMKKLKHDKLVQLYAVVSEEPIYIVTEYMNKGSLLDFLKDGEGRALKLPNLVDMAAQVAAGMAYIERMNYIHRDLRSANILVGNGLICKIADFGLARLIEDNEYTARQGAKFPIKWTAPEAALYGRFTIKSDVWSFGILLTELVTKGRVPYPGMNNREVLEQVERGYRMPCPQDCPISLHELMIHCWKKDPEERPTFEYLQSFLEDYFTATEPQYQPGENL

[16] = Cmax in Wistar Han rat at 5 mg/kg, po; type: ADME, organism-based; design: route oral, dose 5 mg/kg; conditions: in vivo
[17] = molecular target: Tyrosine-protein kinase Yes (Homo sapiens, UniProt P07947); assay: Inhibition of YES1 (unknown origin)
Sequence of Tyrosine-protein kinase Yes (P07947 whole entry): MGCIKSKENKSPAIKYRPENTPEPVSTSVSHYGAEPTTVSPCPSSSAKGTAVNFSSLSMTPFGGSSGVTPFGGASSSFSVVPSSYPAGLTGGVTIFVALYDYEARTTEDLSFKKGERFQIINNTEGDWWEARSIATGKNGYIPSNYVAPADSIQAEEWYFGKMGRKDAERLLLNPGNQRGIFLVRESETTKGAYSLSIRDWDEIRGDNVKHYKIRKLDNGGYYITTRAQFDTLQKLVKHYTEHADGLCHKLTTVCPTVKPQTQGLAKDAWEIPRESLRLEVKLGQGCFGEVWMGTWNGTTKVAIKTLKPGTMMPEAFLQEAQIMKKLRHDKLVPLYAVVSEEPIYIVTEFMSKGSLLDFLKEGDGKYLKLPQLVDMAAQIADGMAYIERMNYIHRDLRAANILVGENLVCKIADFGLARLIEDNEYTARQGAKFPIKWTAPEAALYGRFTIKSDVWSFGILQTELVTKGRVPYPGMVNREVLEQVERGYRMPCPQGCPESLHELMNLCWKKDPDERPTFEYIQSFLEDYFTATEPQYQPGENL

Homo sapiens [18] = organism: Homo sapiens; assay: Selectivity index, ratio of IC50 for FRK (unknown origin) to IC50 for recombinant full length BTK (unknown origin) expressed in baculovirus infected Sf9 cells
[19] = molecular target: T2, Tyrosine-protein kinase BTK; assay: Inhibition of BTK in human whole blood assessed as reduction in cell surface CD69 expression preincubated for 1 hr followed by stimulation with anti-CD79b for 3 hrs by immunostaining analysis; type: tissue-based
[20] = molecular target: Tyrosine-protein kinase Lck (Homo sapiens, UniProt P06239); assay: Inhibition of LCK (unknown origin)
Sequence of Tyrosine-protein kinase Lck (P06239 whole entry): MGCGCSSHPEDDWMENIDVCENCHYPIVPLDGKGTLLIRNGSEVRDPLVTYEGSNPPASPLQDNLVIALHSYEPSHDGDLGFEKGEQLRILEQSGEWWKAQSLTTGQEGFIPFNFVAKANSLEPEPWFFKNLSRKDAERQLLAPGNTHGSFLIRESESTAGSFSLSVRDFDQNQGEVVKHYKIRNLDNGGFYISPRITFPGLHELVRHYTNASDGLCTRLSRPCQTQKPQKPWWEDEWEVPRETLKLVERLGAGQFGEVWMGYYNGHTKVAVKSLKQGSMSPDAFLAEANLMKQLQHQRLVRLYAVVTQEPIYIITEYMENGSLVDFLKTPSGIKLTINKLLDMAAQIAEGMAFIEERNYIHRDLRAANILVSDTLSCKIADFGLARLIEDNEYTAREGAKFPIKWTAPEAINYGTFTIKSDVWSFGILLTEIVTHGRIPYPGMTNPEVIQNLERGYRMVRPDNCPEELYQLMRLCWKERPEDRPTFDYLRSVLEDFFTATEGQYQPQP

[21] = molecular target: Tyrosine-protein kinase FRK (Homo sapiens, UniProt P42685); assay: Inhibition of FRK (unknown origin)
Sequence of Tyrosine-protein kinase FRK (P42685 whole entry): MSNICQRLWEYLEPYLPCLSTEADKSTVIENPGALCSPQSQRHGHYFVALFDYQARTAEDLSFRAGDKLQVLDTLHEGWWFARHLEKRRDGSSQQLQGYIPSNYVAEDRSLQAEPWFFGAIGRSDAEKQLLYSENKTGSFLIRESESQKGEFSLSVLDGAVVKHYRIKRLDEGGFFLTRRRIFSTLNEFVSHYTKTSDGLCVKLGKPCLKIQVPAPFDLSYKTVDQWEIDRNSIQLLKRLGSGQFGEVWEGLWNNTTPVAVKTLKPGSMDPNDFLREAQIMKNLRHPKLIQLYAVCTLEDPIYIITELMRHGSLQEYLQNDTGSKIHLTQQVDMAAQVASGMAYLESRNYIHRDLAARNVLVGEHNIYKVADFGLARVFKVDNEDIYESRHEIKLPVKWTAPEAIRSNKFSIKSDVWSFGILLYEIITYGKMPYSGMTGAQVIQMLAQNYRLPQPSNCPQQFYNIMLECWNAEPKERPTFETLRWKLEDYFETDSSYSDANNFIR

Homo sapiens [22] = organism: Homo sapiens; assay: Selectivity index, ratio of IC50 for LYNB (unknown origin) to IC50 for recombinant full length BTK (unknown origin) expressed in baculovirus infected Sf9 cells

IC50 [2] | Tmax [3] | IC50 [4] | Vd [5] | AUC [8] | IC50 [9] | IC50 [11] | IC50 [13] | IC50 [14] | IC50 [15] | Cmax [16] | IC50 [17] | IC50 [19] | IC50 [20] | SMILES | Ratio IC50 (Homo sapiens [1]) | Ratio IC50 (Homo sapiens [6]) | Ratio IC50 (Homo sapiens [7]) | Ratio IC50 (Homo sapiens [10]) | Ratio IC50 (Homo sapiens [12]) | Ratio IC50 (Homo sapiens [18]) | also measured
0.0056 µM | 150 min | 0.0028 µM | 5.6 L/kg | 2.3 µM·h | 0.023 µM | 0.069 µM | 0.027 µM | 0.024 µM | 0.212 µM | 1 µM | 0.03 µM | 0.058 µM | 0.013 µM | CC1(C)OC(=O)N2C[C@H](c3nc(-c4ccc(C(=O)Nc5cc(C(F)(F)F)ccn5)cc4)c4c(N)nccn34)CC[C@H]21 | 110 | 250 | 1700 | 67 | 2900 | 300 | IC50 [21]: 0.036 µM; Ratio IC50 (Homo sapiens [22]): 660
0.011 µM | 45 min | 0.0025 µM | 0.78 L/kg | 7.8 µM·h | 0.024 µM | 0.033 µM | 0.063 µM | 0.042 µM | 0.087 µM | 1.3 µM | 0.012 µM | 0.024 µM | 0.0059 µM | Nc1nccn2c([C@@H]3CC[C@H]4CCC(=O)N4C3)nc(-c3ccc(C(=O)Nc4cc(C(F)(F)F)ccn4)cc3)c12 | 59 | 120 | 870 | 91 | 1620 | 340 | IC50 [21]: 0.034 µM; Ratio IC50 (Homo sapiens [22]): 200

SMILES | IC50 [2] | Tmax [3] | IC50 [4] | Vd [5] | AUC [8] | IC50 [9] | IC50 [11] | IC50 [13] | IC50 [14] | IC50 [15] | Cmax [16] | IC50 [17] | IC50 [19] | IC50 [20] | Ratio IC50 (Homo sapiens [1]) | Ratio IC50 (Homo sapiens [6]) | Ratio IC50 (Homo sapiens [7]) | Ratio IC50 (Homo sapiens [10]) | Ratio IC50 (Homo sapiens [12]) | Ratio IC50 (Homo sapiens [18]) | also measured
Nc1nccn2c([C@@H]3CC[C@H]4COC(=O)N4C3)nc(-c3ccc(C(=O)Nc4cc(C(F)(F)F)ccn4)cc3)c12 | 0.013 µM | 15 min | 0.0058 µM | 1.2 L/kg | 5.1 µM·h | 0.034 µM | 0.092 µM | 0.092 µM | 0.05 µM | 0.018 µM | 0.34 µM | 0.035 µM | 0.036 µM | 0.011 µM | 132 | 420 | 219 | 169 | 3500 | 554 | IC50 [21]: 0.046 µM; Ratio IC50 (Homo sapiens [22]): 590
